Reference: ChEMBL document CHEMBL1145390, “Synthesis and preliminary biological characterization of new semisynthetic derivatives of ramoplanin” (J Med Chem, 2007)
In brackets after ≈: the same amount, converted by molar mass.

Assays:
[1] = tested on: Enterococcus faecalis; assay: Antibacterial activity against Enterococcus faecalis after 24 hrs by broth microdilution method; assay type: functional; conditions: read-out: MIC
[2] = tested on: Staphylococcus aureus; assay: Antibacterial activity against Staphylococcus aureus Smith after 24 hrs by broth microdilution method; assay type: functional; conditions: read-out: MIC
[3] = tested on: Staphylococcus aureus; assay: Antibacterial activity against methicillin-resistant Staphylococcus aureus clinical isolate after 24 hrs by broth microdilution method; assay type: functional; conditions: read-out: MIC
[4] = tested on: Staphylococcus aureus; assay: Antibacterial activity against methicillin-resistant and vancomycin-intermediate resistant Staphylococcus aureus clinical isolate after 24 hrs by broth microdilution method; assay type: functional; conditions: read-out: MIC
[5] = tested on: Staphylococcus aureus; assay: Antibacterial activity against vancomycin-intermediate resistant Staphylococcus aureus clinical isolate after 24 hrs by broth microdilution method; assay type: functional
[6] = tested on: Streptococcus pyogenes; assay: Antibacterial activity against Streptococcus pyogenes C203 after 24 hrs by broth microdilution method; assay type: functional; conditions: C203, 24 h, read-out: MIC
[7] = tested on: Enterococcus faecium; assay: Antibacterial activity against Enterococcus faecium after 24 hrs by broth microdilution method; assay type: functional; conditions: read-out: MIC
[8] = tested on: Escherichia coli; assay: Antibacterial activity against Escherichia coli SKF-12140 after 24 hrs by broth microdilution method; assay type: functional; conditions: read-out: MIC
[9] = tested on: Candida albicans; assay: Antifungal activity against Candida albicans SKF-2270 after 24 hrs by broth microdilution method; assay type: functional; conditions: read-out: MIC
[10] = tested on: Staphylococcus aureus; assay: Antibacterial activity against vancomycin-intermediate resistant Staphylococcus aureus clinical isolate in presence of 30% bovine serum after 24 hrs by broth microdilution method; assay type: functional
[11] = tested on: Staphylococcus aureus; assay: Antibacterial activity against Staphylococcus aureus Smith in presence of 30% bovine serum after 24 hrs by broth microdilution method; assay type: functional
[12] = tested on: Enterococcus faecalis; assay: Antibacterial activity against vancomycin-resistant Enterococcus faecalis in presence of 30% bovine serum after 24 hrs by broth microdilution method; assay type: functional
[13] = tested on: Enterococcus faecium; assay: Antibacterial activity against vancomycin A-resistant Enterococcus faecium clinical isolate in presence of 30% bovine serum after 24 hrs by broth microdilution method; assay type: functional
[14] = Toxicity assessed as hemolysis in erythrocytes at 400 mg/L; assay type: cell-based, Erythrocyte; conditions: human, read-out: Activity
[15] = Toxicity assessed as hemolysis in erythrocytes at 200 mg/L; assay type: cell-based, Erythrocyte; conditions: human, read-out: Activity
[16] = Toxicity assessed as hemolysis in erythrocytes at 100 mg/L; assay type: cell-based, Erythrocyte; conditions: human, read-out: Activity
[17] = tested on: Enterococcus faecium; assay: Antibacterial activity against vancomycin A-resistant Enterococcus faecium clinical isolate after 24 hrs by broth microdilution method; assay type: functional; conditions: read-out: MIC
[18] = tested on: Enterococcus faecalis; assay: Antibacterial activity against vancomycin A-resistant Enterococcus faecalis after 24 hrs by broth microdilution method; assay type: functional; conditions: read-out: MIC
[19] = Toxicity assessed as hemolysis in erythrocytes at 180 mg/L; assay type: cell-based, Erythrocyte; conditions: human, erythrocytes; read-out: Activity
[20] = Toxicity assessed as hemolysis in erythrocytes at 90 mg/L; assay type: cell-based, Erythrocyte; conditions: human, erythrocytes; read-out: Activity

| SMILES | MIC [1] | MIC [2] | MIC [3] | MIC [4] | MIC [5] | MIC [6] | MIC [7] | MIC [8] | MIC [9] | MIC [10] | MIC [11] | MIC [12] | MIC [13] | hemolysis at 400 mg/L [14] | hemolysis at 200 mg/L [15] | hemolysis at 100 mg/L [16] | MIC [17] | MIC [18] | hemolysis at 180 mg/L [19] | hemolysis at 90 mg/L [20] |
| --- | --- | --- | --- | --- | --- | --- | --- | --- | --- | --- | --- | --- | --- | --- | --- | --- | --- | --- | --- | --- |
| CCC/C=C/C=C/CC(=O)N[C@@H](CC(N)=O)C(=O)NC[C@@H]1C(=O)N[C@H](c2ccc(O)cc2)C(=O)N[C@H](CCCN)C(=O)N[C@H](C(C)C)C(=O)N[C@@H](c2ccc(O)cc2)C(=O)N[C@H](c2ccc(O)cc2)C(=O)N[C@@H]([C@@H](C)O)C(=O)N[C@@H](Cc2ccccc2)C(=O)N[C@H](CCCN)C(=O)N[C@@H](c2ccc(O[C@H]3O[C@H](CO)[C@@H](O)[C@H](O)[C@@H]3O[C@H]3O[C@H](CO)[C@@H](O)[C@H](O)[C@@H]3O)cc2)C(=O)N[C@H]([C@@H](C)O)C(=O)N[C@@H](c2ccc(O)cc2)C(=O)NCC(=O)N[C@@H](CC(C)C)C(=O)N[C@H](C)C(=O)N[C@@H](c2ccc(O)c(Cl)c2)C(=O)O[C@@H]1C(N)=O | ≤ 0.125 µg/mL | ≤ 0.125 µg/mL | ≤ 0.125 µg/mL | 1 µg/mL (≈ 0.39 µM) | 0.5 µg/mL (≈ 0.195 µM) | ≤ 0.125 µg/mL | ≤ 0.125 µg/mL | > 128 µg/mL | > 128 µg/mL | 2 µg/mL | 0.5 µg/mL | 0.5 µg/mL | 1 µg/mL | 78% | 37% | 23% | – | – | – | – |
| CCC/C=C/C=C\CC(=O)N[C@@H](CC(N)=O)C(=O)NC[C@@H]1C(=O)N[C@H](c2ccc(O)cc2)C(=O)N[C@H](CCCN)C(=O)N[C@H](C(C)C)C(=O)N[C@@H](c2ccc(O)cc2)C(=O)N[C@H](c2ccc(O)cc2)C(=O)N[C@@H]([C@@H](C)O)C(=O)N[C@@H](Cc2ccccc2)C(=O)N[C@H](CCCN)C(=O)N[C@@H](c2ccc(O[C@H]3O[C@H](CO)[C@@H](O)[C@H](O)[C@@H]3O[C@H]3O[C@H](CO)[C@@H](O)[C@H](O)[C@@H]3O)cc2)C(=O)N[C@H]([C@@H](C)O)C(=O)N[C@@H](c2ccc(O)cc2)C(=O)NCC(=O)N[C@@H](CC(C)C)C(=O)N[C@H](C)C(=O)N[C@@H](c2ccc(O)c(Cl)c2)C(=O)O[C@@H]1C(N)=O | ≤ 0.125 µg/mL | ≤ 0.125 µg/mL | ≤ 0.125 µg/mL | 1 µg/mL (≈ 0.39 µM) | 0.5 µg/mL (≈ 0.195 µM) | ≤ 0.125 µg/mL | ≤ 0.125 µg/mL | > 128 µg/mL | > 128 µg/mL | 2 µg/mL | 0.5 µg/mL | 0.5 µg/mL | 1 µg/mL | 94% | 83% | 65% | – | – | – | – |
| CC(C)C/C=C/C=C/CC(=O)N[C@@H](CC(N)=O)C(=O)NC[C@@H]1C(=O)N[C@H](c2ccc(O)cc2)C(=O)N[C@H](CCCN)C(=O)N[C@H](C(C)C)C(=O)N[C@@H](c2ccc(O)cc2)C(=O)N[C@H](c2ccc(O)cc2)C(=O)N[C@@H]([C@@H](C)O)C(=O)N[C@@H](Cc2ccccc2)C(=O)N[C@H](CCCN)C(=O)N[C@@H](c2ccc(O[C@H]3O[C@H](CO)[C@@H](O)[C@H](O)[C@@H]3O[C@H]3O[C@H](CO)[C@@H](O)[C@H](O)[C@@H]3O)cc2)C(=O)N[C@H]([C@@H](C)O)C(=O)N[C@@H](c2ccc(O)cc2)C(=O)NCC(=O)N[C@@H](CC(C)C)C(=O)N[C@H](C)C(=O)N[C@@H](c2ccc(O)c(Cl)c2)C(=O)O[C@@H]1C(N)=O | ≤ 0.125 µg/mL | ≤ 0.125 µg/mL | ≤ 0.125 µg/mL | 1 µg/mL (≈ 0.388 µM) | 0.5 µg/mL (≈ 0.194 µM) | ≤ 0.125 µg/mL | ≤ 0.125 µg/mL | > 128 µg/mL | > 128 µg/mL | 4 µg/mL | 1 µg/mL | 0.5 µg/mL | 1 µg/mL | 78% | 87% | 85% | – | – | – | – |
| CC(C)/C=C/C=C\CC(=O)N[C@@H](CC(N)=O)C(=O)NC[C@@H]1C(=O)N[C@H](c2ccc(O)cc2)C(=O)N[C@H](CCCN)C(=O)N[C@H](C(C)C)C(=O)N[C@@H](c2ccc(O)cc2)C(=O)N[C@H](c2ccc(O)cc2)C(=O)N[C@@H]([C@@H](C)O)C(=O)N[C@@H](Cc2ccccc2)C(=O)N[C@H](CCCN)C(=O)N[C@@H](c2ccc(O[C@H]3O[C@H](CO)[C@@H](O)[C@H](O)[C@@H]3O[C@H]3O[C@H](CO)[C@@H](O)[C@H](O)[C@@H]3O)cc2)C(=O)N[C@H]([C@@H](C)O)C(=O)N[C@@H](c2ccc(O)cc2)C(=O)NCC(=O)N[C@@H](CC(C)C)C(=O)N[C@H](C)C(=O)N[C@@H](c2ccc(O)c(Cl)c2)C(=O)O[C@@H]1C(N)=O | ≤ 0.125 µg/mL | ≤ 0.125 µg/mL | ≤ 0.125 µg/mL | 1 µg/mL (≈ 0.39 µM) | 0.5 µg/mL (≈ 0.195 µM) | ≤ 0.125 µg/mL | 0.25 µg/mL (≈ 0.0974 µM) | > 128 µg/mL | > 128 µg/mL | 2 µg/mL | 0.5 µg/mL | 0.5 µg/mL | 1 µg/mL | 97% | 81% | 64% | ≤ 0.125 µg/mL | – | – | – |
| CC(C)C[C@@H]1NC(=O)CNC(=O)[C@H](c2ccc(O)cc2)NC(=O)[C@@H]([C@@H](C)O)NC(=O)[C@H](c2ccc(O[C@H]3O[C@H](CO)[C@@H](O)[C@H](O)[C@@H]3O[C@H]3O[C@H](CO)[C@@H](O)[C@H](O)[C@@H]3O)cc2)NC(=O)[C@@H](CCCN)NC(=O)[C@H](Cc2ccccc2)NC(=O)[C@H]([C@@H](C)O)NC(=O)[C@@H](c2ccc(O)cc2)NC(=O)[C@H](c2ccc(O)cc2)NC(=O)[C@@H](C(C)C)NC(=O)[C@@H](CCCN)NC(=O)[C@@H](c2ccc(O)cc2)NC(=O)[C@@H](CNC(=O)[C@H](CC(N)=O)NC(=O)Cc2ccccc2)[C@@H](C(N)=O)OC(=O)[C@H](c2ccc(O)c(Cl)c2)NC(=O)[C@@H](C)NC1=O.Cl | 2 µg/mL | 1 µg/mL | 1 µg/mL | 4 µg/mL | 2 µg/mL | – | 2 µg/mL | > 128 µg/mL | > 128 µg/mL | 2 µg/mL | 1 µg/mL | 2 µg/mL | 1 µg/mL | 2% | 0% | 3% | 1 µg/mL | 2 µg/mL | 0% | 0% |
| CC(C)/C=C/C=C/CC(=O)N[C@@H](CC(N)=O)C(=O)NC[C@@H]1C(=O)N[C@H](c2ccc(O)cc2)C(=O)N[C@H](CCCN)C(=O)N[C@H](C(C)C)C(=O)N[C@@H](c2ccc(O)cc2)C(=O)N[C@H](c2ccc(O)cc2)C(=O)N[C@@H]([C@@H](C)O)C(=O)N[C@@H](Cc2ccccc2)C(=O)N[C@H](CCCN)C(=O)N[C@@H](c2ccc(O[C@H]3O[C@H](CO)[C@@H](O)[C@H](O)[C@@H]3O[C@H]3O[C@H](CO)[C@@H](O)[C@H](O)[C@@H]3O)cc2)C(=O)N[C@H]([C@@H](C)O)C(=O)N[C@@H](c2ccc(O)cc2)C(=O)NCC(=O)N[C@@H](CC(C)C)C(=O)N[C@H](C)C(=O)N[C@@H](c2ccc(O)c(Cl)c2)C(=O)O[C@@H]1C(N)=O | 0.25 µg/mL (≈ 0.0974 µM) | ≤ 0.125 µg/mL | 0.25 µg/mL (≈ 0.0974 µM) | 2 µg/mL (≈ 0.779 µM) | 1 µg/mL (≈ 0.39 µM) | ≤ 0.125 µg/mL | 0.25 µg/mL (≈ 0.0974 µM) | > 128 µg/mL | > 128 µg/mL | 4 µg/mL | 1 µg/mL | 1 µg/mL | 1 µg/mL | – | 29% | 30% | ≤ 0.125 µg/mL | ≤ 0.125 µg/mL | – | – |
